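Method: 48-hour compound exposure of cells in 96-well plates, five concentrations, linear interpolation of endpoints. Definition used: TGI = concentration required for complete inhibition of growth.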
Experiments:
Experiment in all cases: growth of human tumour cells (NCI), 48 h
ACHN renal = test system: ACHN renal
EKVX NSCLC = test system: EKVX NSCLC
CAKI-1 renal = test system: CAKI-1 renal
KM20L2 colon = test system: KM20L2 colon
SNB-78 CNS = test system: SNB-78 CNS
KM12 colon = test system: KM12 colon
SF-268 CNS = test system: SF-268 CNS
M19-MEL melanoma = test system: M19-MEL melanoma
DMS 114 small cell lung = test system: DMS 114 small cell lung
SF-539 CNS = test system: SF-539 CNS
HL-60(TB) leukemia = test system: HL-60(TB) leukemia
T-47D breast = test system: T-47D breast

Structure (SMILES): O=C(/C=C/c1ccc(Cl)c(Cl)c1)c1cccc2ccccc12
- TGI (ACHN renal): 30 µM
- TGI (EKVX NSCLC): 32.5 µM
- TGI (CAKI-1 renal): 20.4 µM
- TGI (KM20L2 colon): 17.7 µM
- TGI (SNB-78 CNS): 26.8 µM
- TGI (KM12 colon): 16.3 µM
- TGI (SF-268 CNS): 14.2 µM
- TGI (M19-MEL melanoma): 24.6 µM
- TGI (DMS 114 small cell lung): 9.51 µM
- TGI (SF-539 CNS): 7.14 µM
- TGI (HL-60(TB) leukemia): 7.21 µM

Structure (SMILES): N#CCN1C(=O)c2cc([N+](=O)[O-])cc3cc([N+](=O)[O-])cc(c23)C1=O
- TGI (ACHN renal): 26.3 µM
- TGI (EKVX NSCLC): 55.8 µM
- TGI (CAKI-1 renal): 96.6 µM
- TGI (KM20L2 colon): 23.6 µM
- TGI (SNB-78 CNS): > 58 µM
- TGI (KM12 colon): 28 µM
- TGI (SF-268 CNS): 48.8 µM
- TGI (M19-MEL melanoma): 37.7 µM
- TGI (DMS 114 small cell lung): 37.5 µM
- TGI (SF-539 CNS): 31.8 µM
- TGI (HL-60(TB) leukemia): > 24.1 µM

Structure (SMILES): O=C1c2ccccc2N2OC3(N4CCCC4)CCCCC3C12c1ccccc1 (stereo not given)
- TGI (ACHN renal): 43.8 µM
- TGI (EKVX NSCLC): > 100 µM
- TGI (KM20L2 colon): > 100 µM
- TGI (SNB-78 CNS): 33.9 µM
- TGI (SF-268 CNS): 33.7 µM
- TGI (M19-MEL melanoma): 22 µM
- TGI (DMS 114 small cell lung): 28.4 µM
- TGI (SF-539 CNS): 80.5 µM
- TGI (HL-60(TB) leukemia): 53.7 µM

Structure (SMILES): CCCC(S(=O)(=O)c1ccccc1)S(=O)(=O)c1ccccc1
- TGI (ACHN renal): > 100 µM
- TGI (EKVX NSCLC): > 100 µM
- TGI (CAKI-1 renal): > 100 µM
- TGI (KM20L2 colon): > 100 µM
- TGI (SNB-78 CNS): > 100 µM
- TGI (KM12 colon): > 100 µM
- TGI (M19-MEL melanoma): > 100 µM
- TGI (DMS 114 small cell lung): > 100 µM
- TGI (SF-539 CNS): > 100 µM
- TGI (HL-60(TB) leukemia): > 100 µM

Structure (SMILES): O=C1C=C(O)C(=Cc2c(O)cc(O)cc2O)C(O)=C1
- TGI (EKVX NSCLC): > 100 µM
- TGI (CAKI-1 renal): > 100 µM
- TGI (KM20L2 colon): > 100 µM
- TGI (SNB-78 CNS): > 100 µM
- TGI (KM12 colon): > 100 µM
- TGI (SF-268 CNS): > 100 µM
- TGI (M19-MEL melanoma): > 100 µM
- TGI (DMS 114 small cell lung): > 100 µM
- TGI (SF-539 CNS): > 100 µM
- TGI (HL-60(TB) leukemia): > 100 µM

Structure (SMILES): Oc1cc(-n2cccn2)c(O)cc1-n1cccn1
- TGI (ACHN renal): 37.4 µM
- TGI (EKVX NSCLC): > 83.3 µM
- TGI (CAKI-1 renal): 53.8 µM
- TGI (KM20L2 colon): > 100 µM
- TGI (SNB-78 CNS): > 68.7 µM
- TGI (KM12 colon): > 86.5 µM
- TGI (SF-268 CNS): > 82.5 µM
- TGI (M19-MEL melanoma): 51.1 µM
- TGI (DMS 114 small cell lung): > 67.6 µM
- TGI (SF-539 CNS): > 78.6 µM
- TGI (T-47D breast): 56.3 µM
- TGI (HL-60(TB) leukemia): 15.6 µM

Structure (SMILES): N#CNc1nc(N)c(-c2ccc(Cl)cc2)c(C(=O)Nc2nccs2)n1
- TGI (ACHN renal): > 100 µM
- TGI (EKVX NSCLC): > 100 µM
- TGI (CAKI-1 renal): > 100 µM
- TGI (KM20L2 colon): > 100 µM
- TGI (SNB-78 CNS): > 100 µM
- TGI (KM12 colon): > 100 µM
- TGI (SF-268 CNS): > 100 µM
- TGI (M19-MEL melanoma): > 100 µM
- TGI (DMS 114 small cell lung): > 100 µM
- TGI (SF-539 CNS): > 100 µM
- TGI (HL-60(TB) leukemia): > 100 µM

Structure (SMILES): COc1ccc(-c2cc(=O)c3c(O)cccc3o2)c(OC)c1OC
- TGI (ACHN renal): > 100 µM
- TGI (CAKI-1 renal): > 100 µM
- TGI (KM20L2 colon): > 100 µM
- TGI (SNB-78 CNS): > 100 µM
- TGI (KM12 colon): > 100 µM
- TGI (SF-268 CNS): > 100 µM
- TGI (M19-MEL melanoma): > 100 µM
- TGI (DMS 114 small cell lung): > 100 µM
- TGI (SF-539 CNS): 86.9 µM
- TGI (HL-60(TB) leukemia): > 100 µM

Structure (SMILES): Cc1cc2c(c(C(N)=O)c1C)-c1cc(Cl)cc(Cl)c1C2=O
- TGI (ACHN renal): > 100 µM
- TGI (EKVX NSCLC): > 100 µM
- TGI (KM20L2 colon): > 100 µM
- TGI (SNB-78 CNS): > 100 µM
- TGI (KM12 colon): > 100 µM
- TGI (SF-268 CNS): > 100 µM
- TGI (M19-MEL melanoma): > 100 µM
- TGI (DMS 114 small cell lung): > 100 µM
- TGI (SF-539 CNS): > 100 µM
- TGI (HL-60(TB) leukemia): > 100 µM

Structure (SMILES): O=C1OC(=O)c2c1c(-c1ccccc1)nc1ccccc21
- TGI (EKVX NSCLC): > 100 µM
- TGI (CAKI-1 renal): > 100 µM
- TGI (KM20L2 colon): > 100 µM
- TGI (SNB-78 CNS): > 100 µM
- TGI (KM12 colon): > 100 µM
- TGI (SF-268 CNS): > 100 µM
- TGI (M19-MEL melanoma): > 100 µM
- TGI (DMS 114 small cell lung): > 100 µM
- TGI (SF-539 CNS): > 100 µM
- TGI (HL-60(TB) leukemia): > 100 µM

Structure (SMILES): c1ccc2c(c1)CCc1c-2n[nH]c1-c1[nH]nc2c1CCc1ccccc1-2
- TGI (ACHN renal): > 100 µM
- TGI (EKVX NSCLC): > 100 µM
- TGI (CAKI-1 renal): > 100 µM
- TGI (KM20L2 colon): > 100 µM
- TGI (SNB-78 CNS): > 100 µM
- TGI (KM12 colon): > 100 µM
- TGI (SF-268 CNS): > 100 µM
- TGI (M19-MEL melanoma): > 100 µM
- TGI (DMS 114 small cell lung): > 100 µM
- TGI (SF-539 CNS): > 100 µM
- TGI (HL-60(TB) leukemia): > 100 µM

Structure (SMILES): Cc1cc(=O)c2c(O)cc3c(c2o1)CC=C(COC1OC(COC2OC(CO)C(O)C(O)C2O)C(O)C(O)C1O)CO3 (stereo not given)
- TGI (ACHN renal): > 100 µM
- TGI (EKVX NSCLC): > 100 µM
- TGI (CAKI-1 renal): > 100 µM
- TGI (KM20L2 colon): > 100 µM
- TGI (SNB-78 CNS): > 100 µM
- TGI (KM12 colon): > 100 µM
- TGI (SF-268 CNS): > 100 µM
- TGI (M19-MEL melanoma): > 100 µM
- TGI (DMS 114 small cell lung): > 100 µM
- TGI (SF-539 CNS): > 100 µM

Structure (SMILES): N[C@H](COCc1ccccc1)c1ccccc1
- TGI (ACHN renal): > 91.4 µM
- TGI (EKVX NSCLC): > 100 µM
- TGI (CAKI-1 renal): 61.2 µM
- TGI (KM20L2 colon): 75.8 µM
- TGI (SNB-78 CNS): > 100 µM
- TGI (KM12 colon): > 100 µM
- TGI (SF-268 CNS): > 100 µM
- TGI (M19-MEL melanoma): 64.3 µM
- TGI (DMS 114 small cell lung): 56.3 µM
- TGI (SF-539 CNS): 75.1 µM
- TGI (HL-60(TB) leukemia): 30.8 µM

Structure (SMILES): Cc1ccc(NC(=O)C(=O)C(C(=O)/C=C/c2ccccc2)C2OC(=O)c3ccccc32)c(C)c1 (stereo not given)
- TGI (ACHN renal): > 100 µM
- TGI (EKVX NSCLC): > 100 µM
- TGI (CAKI-1 renal): > 100 µM
- TGI (KM20L2 colon): > 100 µM
- TGI (SNB-78 CNS): > 100 µM
- TGI (KM12 colon): > 100 µM
- TGI (SF-268 CNS): > 100 µM
- TGI (M19-MEL melanoma): > 100 µM
- TGI (DMS 114 small cell lung): > 100 µM
- TGI (SF-539 CNS): > 100 µM
- TGI (HL-60(TB) leukemia): > 100 µM

Structure (SMILES): O=C(Cc1nc2ccccc2o1)C(=O)Nc1cccc(C(F)(F)F)c1
- TGI (ACHN renal): > 100 µM
- TGI (EKVX NSCLC): > 100 µM
- TGI (CAKI-1 renal): > 100 µM
- TGI (KM20L2 colon): > 100 µM
- TGI (SNB-78 CNS): > 100 µM
- TGI (KM12 colon): > 100 µM
- TGI (SF-268 CNS): > 100 µM
- TGI (M19-MEL melanoma): > 100 µM
- TGI (DMS 114 small cell lung): > 100 µM
- TGI (SF-539 CNS): > 100 µM
- TGI (HL-60(TB) leukemia): > 100 µM

Structure (SMILES): N#CC1(C#N)C(c2ccccc2)C=CC12OCCCO2 (stereo not given)
- TGI (ACHN renal): > 100 µM
- TGI (EKVX NSCLC): > 100 µM
- TGI (CAKI-1 renal): 74.1 µM
- TGI (KM20L2 colon): > 100 µM
- TGI (SNB-78 CNS): > 100 µM
- TGI (KM12 colon): > 100 µM
- TGI (SF-268 CNS): > 100 µM
- TGI (M19-MEL melanoma): > 100 µM
- TGI (DMS 114 small cell lung): 67.8 µM
- TGI (SF-539 CNS): 45.9 µM
- TGI (HL-60(TB) leukemia): 92.3 µM

Structure (SMILES): CC1=C(CC2C(=O)N(c3ccccc3)S(=O)(=O)NC2C)C(=O)N(c2ccccc2)S(=O)(=O)N1C (stereo not given)
- TGI (ACHN renal): > 100 µM
- TGI (EKVX NSCLC): > 100 µM
- TGI (CAKI-1 renal): > 100 µM
- TGI (KM20L2 colon): > 100 µM
- TGI (SNB-78 CNS): > 100 µM
- TGI (KM12 colon): > 100 µM
- TGI (SF-268 CNS): > 100 µM
- TGI (M19-MEL melanoma): > 100 µM
- TGI (DMS 114 small cell lung): > 100 µM
- TGI (SF-539 CNS): > 100 µM

Structure (SMILES): CCOC(=O)/C(I)=C/c1cc(OC)c(OC)c(OC)c1
- TGI (ACHN renal): 28.2 µM
- TGI (EKVX NSCLC): 42.9 µM
- TGI (CAKI-1 renal): 16.3 µM
- TGI (KM20L2 colon): 12.4 µM
- TGI (SNB-78 CNS): > 100 µM
- TGI (KM12 colon): 19.2 µM
- TGI (SF-268 CNS): 6.73 µM
- TGI (M19-MEL melanoma): 19.3 µM
- TGI (DMS 114 small cell lung): 9.49 µM
- TGI (SF-539 CNS): > 100 µM
- TGI (HL-60(TB) leukemia): 26.1 µM

— PubChem BioAssay (NCI)
